Series [1] relates to CD4+ T cells. Nature of the series: in vitro T cell proliferation assay ([3H]thymidine incorporation) with T cells of immunized Balb/c mice. Format: cell-based, mouse. Conditions: for proliferation of T cells from immunized mice: Balb/c (H-2d) mice immunized in footpad with 100 μg in complete Freund's adjuvant, lymph node CD4+ T cells restimulated in vitro with myoglobin or Der p II; for immunogenicity: Balb/c mice, subcutaneous immunization. On the procedure:
In order to determine experimentally whether this sequence homology could result in functional cross-reactivity between Der p II and myoglobin, mice were immunized by subcutaneous injections of FIS (SEQ ID NO. 2) or myoglobin.
Balb/c mice (H-2^d) were injected once in the footpad with 50 μl of a solution containing 100 μg of peptide or myoglobin emulsified in complete Freund's adjuvant. Ten days later, regional lymph nodes were retrieved, teased and extensively washed with sterile saline to recover cells. The cell suspension was then washed in RPMI buffer (Gibco). Pure CD4^+ T cell suspensions were obtained by negative selection using antibodies towards CD45R, CD11b and CD11c, all conjugated to magnetic beads according to the manufacturer's instructions (Miltenyi Biotech GmbH, Germany).
(§1) Functional cross-reactivity between Der p II, FIS and myoglobin was checked by in vitro proliferation assays. Thus, the T cell suspension was adjusted to 5×10^6 cells per ml in RPMI 1640 buffer supplemented with 2 mM glutamine, 100 U penicillin/ml, 100 jug streptomycin/ml, 5% heat-inactivated fetal calf serum and 5×10^−5 M 2-mercaptoethanol. One hundred μl of the T-cell-enriched fraction ([…]) was cultured in 100 μl of the above-described medium containing different concentrations of test peptide or myoglobin, and mitomycin-C treated syngeneic naive spleen cells as a source of APC (4×10^5 per well). Incubation was carried out into a humidified atmosphere of 5% CO2 in air for 4 days, and cells were pulsed during a final 18-h incubation with 1 μCi of [^3H] thymidine per well. The cells were then harvested onto glass fibres using a multiple-cell harvester. Radioactivity incorporated into proliferating cells was determined in a liquid scintillation counter. All tests were carried out in triplicate. The proliferative response was expressed as c.p.m.×10 after subtracting background value incorporation in the absence of antigen.
(In general: Incorporation of labelled thymidine or its analogues reports DNA synthesis.)

Series [2] has as its system mouse T cells. The series is described as follows: T cell proliferation assay in mice of additional H-2 haplotypes. The following applies: H-2b (C57BL/6), H-2k (C3H), H-2d (SJL) as printed; significant proliferative response for the three haplotypes. Format: cell-based.
For series [3], the system named is T cells from peripheral blood. The series is described as follows: proliferation assay with T cells from peripheral blood of atopic individuals. Format: cell-based. On the procedure: as §1
Moreover, T cells were prepared from the peripheral blood of atopic individuals. Thus, a 50-ml sample of peripheral blood was obtained in heparin. The blood sample was diluted vol/vol in RPMI 1640 and applied to a Ficoll-Hypaque density gradient. […]

For FISEAIIHVLHSR (Physeter catodon), in series [1], the “proliferation of T cells from immunized mice” value is “proliferated to myoglobin and to Der p II”; the immunogenicity result is “immunogen”.
Turning to “SEPCIIHRGKP (Dermatophagoides) [SEQ ID NO. 1]”, in series [2], the “recognition of T cell epitope in additional mouse H-2 haplotypes” value is recorded as “recognised in the context of three additional mouse H-2 haplotypes”. Besides, in series [3], the “proportion of human subjects recognising the T cell epitope” value was “more than 85%”.

B1: myoglobin: Sheep myoglobin purchased from Sigma Chemicals; red pigment, oxygen reservoir of muscle cells (protein, UniProt P02190 2-154, looked up)
Myoglobin: GLSDGEWQLVLNAWGKVEADVAGHGQEVLIRLFTGHPETLEKFDKFKHLKTEAEMKASEDLKKHGNTVLTALGGILKKKGHHEAEVKHLAESHANKHKIPVKYLEFISDAIIHVLHAKHPSDFGADAQGAMSKALELFRNDMAAQYKVLGFQG
As to B1, in series [1], the “proliferation of T cells from immunized mice” value is “proliferated to myoglobin and to Der p II”; the immunogenicity entry was “immunogen”.

Source of the values: patent US20030129205A1, “Composition and method for the prevention and/or the treatment of allergy” (priority 2000, published 2003).
